Experimental findings from patent EP0209274A2, “Furanone derivatives” (ELI LILLY AND COMPANY, priority 1985, dated 1987) are described below.

Molecules are shown by their SMILES. A value given as a limit tells only on which side of the number the result lay.

In this experiment the target is T1, fatty acid cyclooxygenase (Homo sapiens, UniProt P23219).
T1 construct: Microsomes were prepared from 185 bags of human platelets; from tissue; host or cells: human platelets (solubilized microsomes, then electrofocusing and Sephadex G-200)
T1 sequence (P23219 24-599): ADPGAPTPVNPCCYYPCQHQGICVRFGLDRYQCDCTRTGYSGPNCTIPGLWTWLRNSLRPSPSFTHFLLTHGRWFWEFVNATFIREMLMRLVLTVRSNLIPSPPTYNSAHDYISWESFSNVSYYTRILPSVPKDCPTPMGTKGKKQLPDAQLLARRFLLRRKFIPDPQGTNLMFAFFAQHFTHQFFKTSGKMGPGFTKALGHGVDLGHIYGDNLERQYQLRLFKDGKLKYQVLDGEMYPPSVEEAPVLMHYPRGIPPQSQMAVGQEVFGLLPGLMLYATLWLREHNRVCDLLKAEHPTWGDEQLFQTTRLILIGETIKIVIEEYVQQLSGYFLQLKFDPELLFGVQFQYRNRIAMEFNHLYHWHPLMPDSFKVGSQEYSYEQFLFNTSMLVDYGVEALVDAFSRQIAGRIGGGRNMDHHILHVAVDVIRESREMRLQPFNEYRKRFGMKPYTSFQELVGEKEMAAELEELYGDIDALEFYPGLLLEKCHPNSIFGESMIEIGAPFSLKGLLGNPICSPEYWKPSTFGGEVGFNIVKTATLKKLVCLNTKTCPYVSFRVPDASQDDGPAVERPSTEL
In words: Fatty Acid Cyclooxygenase (FCO) Assay. The experiment is classed as biochemical. The conditions noted are these: 30 µg/ml test compound; inhibition of formation of PGE2; enzyme from human platelets. The method, then:
Microsomes were prepared from 185 bags of human platelets (each bag containing the platelets from one pint of blood prepared using differential centrifugation procedures). The platelets from approximately 60 bags were prepared at one time. Platelet-rich plasma (500 g) was centrifuged at 10,000 x g for 20 minutes, and the platelet pellet was suspended in 100 ml of 0.1M. potassium phosphate buffer, pH 8.0, with a Teflon glass homogenizer and sonicated for 5.0 minutes with a Bronson Sonifier (Model 350) in a rosette flask cooled in ice water. Disrupted platelets were centrifuged 15 minutes at 10,000 x g. The supernatant was centrifuged at 100,000 x g for 90 minutes and the microsomal pellets were homogenized in 25 ml of 20% sucrose containing 1.0% Triton X-100 detergent. After 30 minutes at 4°C, the solubilized microsomes were centrifuged at 100,000 x g for 60 minutes. The yellow supernatant was removed and stored at -70°C.
The solubilized fatty acid cyclooxygenase was applied to a 440 ml electrofocusing column (LKB-8012) containing 1% phisolytes (Brinkman Instruments, Westburgh, NY), pH 2-11, with the cathode at the top of the column. The enzyme was layered onto the column at the appropriate time so that its sucrose concentration was equal to that of the column gradient. This was accomplished by checking the gradient concentration periodically with a sucrose hand refractometer. Electrofocusing was carried out for 16 hours with an initial voltage of 400 V and a final voltage of 900-1,000 volts. Fractions were collected (20 ml) and assayed for PGE2 formation. Active peak fractions were pooled and concentrated by ultrafiltration (XM 100A) to a volume of 3-5 ml.
Active fractions from electrofocusing were applied to a G-200 Sephadex column (2 cm x 46 cm) and eluted with 10 mM potassium phosphate buffer, pH 7.0, in 5 ml fractions. After assay, active fractions were pooled and concentrated to 1.0 ml by ultrafiltration (XM 100A), and kept frozen at -70°C.
Enzyme activity was determined by assaying for PGE2 formation by preincubating the enzyme with 10 mmol/l imidazole phosphate buffer, pH 8.0, 2 mmol/l epinephrine, 2 mmol/1 methemoglobin, and the test compound (30 pg/ml) in a total volume of 0.2 ml for one minute at 37°C. After preincubation, 5 mmol/1 ^14C-arachidonic acid were added and the mixture was incubated an additional 0.5 minutes at 37°C. The enzyme reaction was stopped by the addition of 20 µl of indomethacin (2 mg/ml) in alcohol.
The reaction mixture was spotted (50 pl) on a silica gel (LQ6D) plate and subjected to TLC. The solvent system consisted of chloroform-methanol-glacial acetic acid (90:5:5, v/v/v) and the relative mobilities were PGF2a = 0.235, and PGE2 = 0.47. The silica gel on the plate was scraped in 1 cm sections, suspended in 5 ml of the scintillation fluid [5.88 g of 2,5-diphenyl-oxazole and 118 mg of 1,4-bis(5-phenyloxazol-2-yl)benzene] dissolved in 650 ml of toluene and 350 ml of Triton X-100) and the radioactivity was determined in an Isocap/300 liquid scintillation counter (Searle Analytic, Inc., Southfield, MI). Another 50 µl of the mixture was added to 10 ml of the Triton X-100 based scintillation fluid, and the radioactivity was determined so that the amount of radioactivity recovery from the TLC plate could be ascertained. PGE2 formation for each test compound was determined as a percent of control experiments wherein no test compound was added. Data is expressed in Table I as the percent inhibition of formation of PGE2 at a test compound concentration of 30 pg/ml.
Regarding `O=C1C=C(CCCCOc2ccc3ccccc3c2)C(O)O1` (stereo not shown) [Example 12, 5-Hydroxy-4-[4-(2-naphthalenyloxy)butyl]-2(5H)-furanone], at 30 µg/mL the inhibition was 16%.

For the compound `CCCCC/C=C\C/C=C\CCCCCCC1=CC(=O)OC1O` (stereo not shown) [Example 1, (Z,Z)-4-(7,10-hexadecadienyl)-5-hydroxy-2-(5H)-furanone], the inhibition at 30 µg/mL came to 77%. As for `CC/C=C\C/C=C\C/C=C\C/C=C\C/C=C\C/C=C\CC1=CC(=O)OC1O` (stereo not shown) [Example 9, (Z,Z,Z,Z,Z,Z)-4-(2,5,8,11,14,17-eicosa-hexaenyl)-5-hydroxy-2(5H)-furanone], the inhibition at 30 µg/mL was 46%. On to `CC/C=C\C/C=C\C/C=C\CCCCCCC1=CC(=O)OC1O` (stereo not shown) [Example 2, (Z,Z,Z)-4-(7,10,13-hexadecatrienyl)-5-hydroxy-2(5H)-furanone], for which the inhibition at 30 µg/mL is 75%.

Take `CC(C)=CCC/C(C)=C/CCC1=CC(=O)OC1O` (stereo not shown) [Example 14, (E,E)-4-(4,8-dimethyl-3,7-nonadienyl)-5-hydroxy-2(5H)-furanone]: the inhibition at 30 µg/mL was less than 5%. As for `CC(C)=CCCC(C)=CCCC(C)=CCCC1=CC(=O)OC1O` (stereo not shown) [Example 13, 5-Hydroxy-4-(4,8,12-trimethyl-3,7,11-tri-decatrienyl)-2(5H)-furanone], the figure is 47%. Regarding `CCCCCCCC/C=C\CCCCCCC1=CC(=O)OC1O` (stereo not shown) [Example 11, (Z)-4-(7-hexadecenyl)-5-hydroxy-2(5H)-furanone], the inhibition at 30 µg/mL came to 61%. Compound `O=C1C=C(CCCCCOc2ccccc2Cc2ccccc2)C(O)O1` (stereo not shown) [Example 18, 5-Hydroxy-4-[5-(2-benzylphenoxy)pentyl]-2(5H)-furanone] returned an inhibition at 30 µg/mL of 20%. Under `CC(C)=CCCC(C)=CCCC(=CCCC1=CC(=O)OC1O)CO` (stereo not shown) [Example 19, 5-Hydroxy-4-[4-(hydroxymethyl)-8,12-dimethyl-3,7,11-tridecatrienyl]-2(5H)-furanone] stands 14%. As for `CCCCC/C=C\C/C=C\C/C=C\CCCC1=CC(=O)OC1O` (stereo not shown) [Example 5, (Z,Z,Z)-4-(4,7,10-hexadecatrienyl)-5-hydroxy-2(5H)-furanone], the figure is 75%; as for `CCCCC/C=C\C/C=C\C/C=C\C/C=C\CCC1=CC(=O)OC1O` (stereo not shown) [Example 3, (Z,Z,Z,Z)-5-hydroxy-4-(3,6,9,12-octa-decatetraenyl)-2(5H)-furanone], 67%. In turn, `CCCCCCCC/C=C/CCCCCCC1=CC(=O)OC1O` (stereo not shown) [Example 4, (E)-4-(7-hexadecenyl)-5-hydroxy-2(5H)-furanone] displayed an inhibition at 30 µg/mL of 52%. `CC(C)=CCCC(C)=CCCC(C=O)=CCCC1=CC(=O)OC1O` (stereo not shown) [Example 15, 2-[3-(2,5-dihydro-2-hydroxy-5-oxo-3-furanyl)-propylidene]-6,10-dimethyl-5,9-undecadienal] displayed an inhibition at 30 µg/mL of 32%.

The inhibition is the share of the control response that was lost under treatment. A low value points to little suppression.
